Tests used:
[1] = tested on: rats; settings: Granados-Soto et al. Pain 2005; cited from earlier work
[2] = tested on: rats; test: contextual fear conditioning in rats (freezing); type: in vivo, rat; settings: I.V. in DMSO, furosemide 100 mg/kg, bumetanide 50 mg/kg; compared with vehicle alone; FIG. 5
Protocol: Contextual fear conditioning involves pairing an aversive event, in this case moderate foot shock, with a distinctive environment. The strength of the fear memory is assessed using freezing, a species-typical defensive reaction in rats, marked by complete immobility, except for breathing. […] However, if they are allowed to explore the distinctive environment sometime before the immediate shock, they show intense anxiety and fear when placed back into the same environment. We can take advantage of this fact and, by procedurally dividing contextual fear conditioning into two phases, we can separately study effects of treatments on memory for the context (specifically a hippocampus based process) from learning the association between context and shock or experiencing the aversiveness of the shock (which depend upon emotional response circuitry including amygdala). […] The experiment employed 24 rats. […] Each rat was again placed into the same environment for 8 min during which time freezing was measured, as an index of Pavlovian conditioned fear. […] Measurement of freezing was accomplished through an overhead video camera connected to the microcomputer and was automatically scored using a specialty piece of software, FreezeFrame (OER Inc., Reston, Va.). Total freezing time was analyzed in a one-way analysis of variance (ANOVA) test, with drug dose as the […] factor.

[3] = tested on: human skin; settings: Willis et al.; cited from earlier work
[4] = tested on: rats; test: fear potentiated startle (FPS) test in rats; type: in vivo, rat
Protocol: Twenty-four rats received a 30 min period of habituation to the FPS apparatus. Twenty-four hours later, baseline startle amplitudes were collected. The rats were then divided into three matched groups based on baseline startle amplitudes. […] Groups 1 and 2 therefore consisted of 8 rats each, with Group 3 consisting of […]. Following baseline startle amplitude collection, 20 light/shock pairings were delivered on two sessions over two consecutive days (i.e., 10 light/shock pairings per day). […] Immediately following injections, startle amplitudes were assessed during startle alone trials and startle plus fear (light followed by startle) trials. Fear potentiated startle (light+startle amplitudes minus startle alone amplitudes) was compared between the treatment groups.
Animals were trained and tested in four identical stabilimeter devices (Med-Associates). Briefly, each rat was placed in a small Plexiglas cylinder. The floor of each stabilimeter consisted of four 6-mm-diameter stainless steel bars spaced 18 mm apart through which shock can be delivered. Cylinder movements result in displacement of an accelerometer where the resultant voltage is proportional to the velocity of the cage displacement. Startle amplitude is defined as the maximum accelerometer voltage that occurs during the first 0.25 sec after the startle stimulus is delivered. […] Each stabilimeter was enclosed in a ventilated, light-, and sound-attenuating box. All sound level measurements were made with a Precision Sound Level Meter. The noise of a ventilating fan attached to a sidewall of each wooden box produced an overall background noise level of 64 dB. The startle stimulus was a 50 ms burst of white noise (5 ms rise-decay time) generated by a white noise generator. The visual conditioned stimulus employed was illumination of a light bulb adjacent to the white noise source. The unconditioned stimulus was a 0.6 mA foot shock with duration of 0.5 sec, generated by four constant-current shockers located outside the chamber. The presentation and sequencing of all stimuli were under the control of the microcomputer.
FPS procedures consisted of 5 days of testing; during days 1 and 2 baseline startle responses were collected, days 3 and 4 light/shock pairings were delivered, day 5 testing for fear potentiated startle was conducted.
Matching: On the first two days all rats were placed in the Plexiglas cylinders and 3 min later presented with 30 startle stimuli at a 30 sec interstimulus interval.
Training: On the following 2 days, rats were placed in the Plexiglas cylinders. […] The shock was delivered during the last 0.5 sec of the 3.7 sec CSs at an average intertrial interval of 4 min (range, 3-5 min).
These initial startle stimuli were used to again habituate the rats to the acoustic startle stimuli. Thirty seconds after the last of these stimuli, each animal received 60 startle stimuli with half of the stimuli presented alone (startle alone trials) and the other half presented 3.2 sec after the onset of the 3.7 sec CS (CS-startle trials). All startle stimuli are presented at a mean 30 sec interstimulus interval, randomly varying between 20 and 40 sec.
Measures: The treatment groups were compared on the difference in startle amplitude between CS-startle and startle-alone trials (fear potentiation).
The therapeutic efficacy of several bumetanide analogs in alleviating anxiety was examined using the fear potentiated startle (FPS) test in rats as described above.

Structure (SMILES)	formalin-induced nociception [1]	freezing [2]	sensory nerve activation, itch and flare responses induced by histamine [3]	difference score one week after treatment ([4]; compared with vehicle alone, FIG. 10)	statistical difference from vehicle in difference score one week after treatment ([4]; error bars large for vehicle-treated animals)	difference score (startle alone - fear potentiated startle) on the test day ([4]; i.v. in DMSO, furosemide 100 mg/kg, bumetanide 70 mg/kg, compared with vehicle alone, FIG. 8)
CCCCNc1cc(C(=O)O)cc(S(N)(=O)=O)c1Oc1ccccc1 [bumetanide]	reduced	significantly less freezing	inhibit sensory nerve activation to reduce the itch and flare responses	higher difference score	does not imply any statistically significant difference	statistically significantly lower difference score
CCCc1c2oc(C(=O)O)cc(=O)c2cc2c(=O)cc(C(=O)O)n(CC)c12 [nedocromil sodium]			inhibit sensory nerve activation to reduce the itch and flare responses			
NS(=O)(=O)c1cc(C(=O)O)cc(N2CCCC2)c1Oc1ccccc1 [piretanide]	reduced					
